Experiments:
Assay type in all cases: cell-based
HIV-1 = experiment: Virus titer (TCID) of HIV-1 infected T-cell cultures grown with test compound; settings: control 10^6; for HIV-1 (TCID): Table 2, 0.10 mg/ml, 10^4 T-45 or MOLT-4 cells (identical results), 10^4 TCID inoculum, after day 10; for VIRUS TITER HIV-1: Table 3, Example 2, 0.1 mg/ml, T-45 and MOLT-4 cells, 10^4 TCID on 10^4 cells
Protocol: (§1) Cell free suspensions of the HIV were prepared from infected cultures. The concentration of infectious particles was estimated on end-point titration assay using serial ten-fold dilutions. The approximate number of infectious particles in each preparation was determined by the highest dilution which contains infectious HIV as determined by synctial formation, cytopathicity [Leonard et al., Proc. Natl. Acad. Sci. USA 85, 3570-3574 (1988); Barre-Sinoussi et al., Science 220, 868-870 (1983)] and HIV antigen [Karpas et al., Lancet 1, 695-697 (1985)] synthesis after 10 days of culture with 10^4 T-cells. This represents the concentration of infectious particles, herein defined as the tissue culture infectious dose (TCID).
(§2) The assay was run in 96 well plastic microtiter plates in which 0.2 ml of culture medium containing 10^4 T-cells are seeded into each well. RPMI-1640 supplemented with 10% fetal calf serum was used as the culture medium. In each assay, 6 wells are used. Three (1-3) are infected with 10^4 TCID/well of HIV-1 or HIV-2 and to the other three (4-6) culture medium alone is added. Medium is changed at the same intervals for each test compound. The detailed assay procedure is illustrated in Figures 1 and 2.
(§3) The efficacy of the test compounds used in this example was assessed as follows: 0.2 ml of culture medium containing 10^4 T-45 cells were transferred into each well of a 96-well flat-bottomed tissue-culture plastic plate and the cells were allowed to settle at 37°C (see Figure 1). After 4 hours the media were aspirated and replaced with media which contained the test compound. Following overnight incubation the media was aspirated and 10^4 TCID of virus (HIV-1 or HIV-2) was added to each well. Incubation was continued at 37°C in 5% CO2 for 1 hour. Thereafter, growth media containing the various compounds were added and incubation at 37°C was continued. On the fourth day the cell suspensions from each well were split and seeded into two new wells and 0.2 ml of fresh media with compounds was added. This was repeated on the seventh day. Cells were examined by microscopy during days 1 to 10 for the presence of syncytia, growth rate and the appearance of the cytopathic effect (CPE) (giant cells, pycnotic nuclei, loss of refractility). CPE (100%) was defined as no round, refractile, uniform cells remaining; only giant, ballooned pyknotic cells were present. The viability of HIV infected cultures was determined by a rough count/estimate of cells which underwent CPE in relation to round refractile uniform (normal) cells in a given culture. Cells in wells which were incubated with compounds which appeared to inhibit or reduce HIV replication and in which there was marked cell proliferation were either transferred to larger wells (of a 24-well plate) or divided in order to maintain an approximate constant cell density to promote continuous cell division.
(§4) That is, HIV-1 was first passaged in T-45 cells; likewise, HIV-1 was first passaged in MOLT-4 cells. The same passaging was done with HIV-2. The test compounds were used at a concentration of 0.1 mg/ml. 10^4 TCID of HIV-1 and separately of HIV-2 were used to infect 10^4 cells. Upon completion of the test, the virus titers were as follows: TABLE 3

HIV [1] = experiment: Inhibition of HIV-associated cytopathic effect (CPE) in T-45 cells; settings: HIV infected T-45 cells, various concentrations (Fig. 3); result in words
Protocol: FIG. 3 is a graphical representation in which the inhibition of HIV associated CPE (―% CPE) reduction) and test compound-associated cytotoxicity (---% cell death) is plotted against the media concentration in mg/ml of several test compounds (drugs). The cell viability data was determined for non-HIV infected cells. The test compounds were the N-methyl-, N-ethyl-, and N-butyl derivatives of deoxynojirimycin (DNJ), castanospermine (Cast), N-(5-carboxymethyl-1-pentyl)-1,5-imino-L-fucitol (LFT) and 1,4-dideoxy-1,4-imino-L-arabinitol (LAB).
After a suitable period of incubation, the cultures are scored for the presence of so-called syncytial cells (giant cells). Typical examples of such a test for the evaluation of inhibitors of HIV have been disclosed by Fung et al., Bio/Technology 5, 940-946 (1987); Tyms et al., Lancet, October 31, 1987, pp. 1025-1026; Gruters et al., Nature 330, 74-77 (1987); and Walker et al., Proc. Natl. Acad. Sci. USA 84, 8120-8124 (1987).
as §3

HIV [2] = experiment: TCID titre of culture supernatants of T-45 cells infected with HIV, Fig. 4; settings: for reduction of TCID titre of culture supernatants: T-45 cells infected with HIV, after 10 days in culture, result in words; for reduction of the virus titer / yield of infectious HIV: at non-cytotoxic concentrations
Protocol: FIG. 4 is a graphical representation in which the viral titer (determined as TCID) is plotted against the concentration in mg/ml of various of the test compounds (drugs) of FIG. 3 in panels (a) and (b).
as §1, §3
Quantitative data on the effect of the various compounds on the non-infected cells (cytotoxicity) was obtained by comparison of their growth rate to control cells not exposed to drugs (Table 1). Fig. 4 and Table 2 show the relation between the TCID titre of culture supernatants of T-45 cells infected with HIV after 10 days in culture and the concentration of drug. […] The inability of any of these drugs alone to totally reduce the TCID may be due to heterogeneity of virus production or spread. […] In addition, the MOLT-4 cell line was also used.

HIV-2 = experiment: Virus titer (TCID) of HIV-2 infected T-cell cultures grown with test compound; settings: control 10^6; for HIV-2 (TCID): Table 2, 0.10 mg/ml, 10^4 T-45 or MOLT-4 cells (identical results), 10^4 TCID inoculum, after day 10; for VIRUS TITER HIV-2: Table 3, Example 2, 0.1 mg/ml, T-45 and MOLT-4 cells, 10^4 TCID on 10^4 cells
Protocol: as §1, §2, §3, §4

[3] = tested on: B16-F10 murine melanoma cells; experiment: Incorporation of radiolabeled galactose, mannose, glucose and thymidine into cells; settings: result in words; for galactose incorporation into the cells: radiolabeled galactose; for glucose utilization/inhibition: radiolabeled glucose; for mannose utilization: radiolabeled mannose
[4] = replicate tests (Tables 2 and 3), two virus strains, two cell lines

| SMILES | HIV-1 (TCID) (HIV-1) | VIRUS TITER HIV-1 (HIV-1) | effect on CPE formation (HIV [1]) | reduction of TCID titre of culture supernatants (HIV [2]) | reduction of the virus titer / yield of infectious HIV (HIV [2]) | effectiveness as an inhibitor of HIV compared with N-ethyl deoxynojirimycin (HIV [2]; [4]) | effectiveness as an inhibitor of HIV compared with N-methyl-deoxynojirimycin (HIV [2]; [4]) | HIV-2 (TCID) (HIV-2) | VIRUS TITER HIV-2 (HIV-2) | galactose incorporation into the cells [3] | glucose utilization/inhibition [3] | mannose utilization [3] | ^3H-Thymidine uptake into the cells [3] |
| --- | --- | --- | --- | --- | --- | --- | --- | --- | --- | --- | --- | --- | --- |
| CCCCN1C[C@H](O)[C@@H](O)[C@H](O)[C@H]1CO [BuDNJ, N-n-butyl-deoxynojirimycin] | <10 TCID | 10 | completely prevented CPE in the HIV infected cells at all concentrations tested | negligible virus TCID titres | over five logs | three log orders more effective | two log orders more effective | <10 TCID | 10 | substantially inhibited galactose incorporation into the cells at 1.0 mM or less | little or no effect | inhibited mannose utilization | not affected by N-butyl-DNJ up to 2.0 mM |
| CN1C[C@H](O)[C@@H](O)[C@H](O)[C@H]1CO [MeDNJ, N-methyl-deoxynojirimycin] | 10^2 TCID | 10^2 | bell shaped dose-dependence | reduced the TCID only partially | two to four log-order of reduction |  |  | 10^2 TCID | 10^2 | only slightly inhibitory | inverted dose-response curve | either stimulated incorporation or, conservatively, had no effect | inhibited incorporation at 1.0 mM |
